Measured values published in patent US20240100172A1, “METHODS AND COMPOUNDS FOR TARGETED AUTOPHAGY” (Hangzhou Jijing Pharmaceutical Technology Limited, priority 2020, published 2024).
Marks after values point to notes of the source that are not given here.

What was measured:
[1] = target: T1, KRAS (Homo sapiens, UniProt P01116, G12C); assay: KRAS levels in NCI-H2030 cells (Western blot); assay type: cell-based
T1 construct: endogenous in cells; host or cells: NCI-H2030
Method: The following protocol was used to test the effect of exemplary compounds on KRAS levels in NCI-H2030 cells.
On Day 1, seed NCI-N2030 cells were placed into 6-well plates (3.5×10^5 cells/well/2 mL) and incubated for 24 hours. On Day 2, 6 μL compound solutions were added into testing wells in order to obtain compound concentrations of 3.33 μM and 10 μM—with DMSO concentrations of 0.3%. The wells were thoroughly agitated and incubated for 24 hours. On Day 3, the supernatant in the testing wells was discarded, and the testing wells were washed once with 1 mL of cold PBS. Then, 100 μL of RIPA buffer (Boston BioProducts BP-115D) was added to the testing wells with 1× complete protease inhibitor (Roche, #4693116001) and phosphatase inhibitor (Roche, #4906837001). The wells were then agitated by pipetting a few times, the testing plates were held on ice for 30 minutes to affect complete lysis of the cells. The cell lysate from the testing wells was then collected into EP tubes, and the tubes were spun at about 20000×g for 10 minutes at 4° C., before collecting the supernatant from the testing cells.
Protein concentrations in the collected supernatants were measured using BCA methods. The cell lysate was mixed with 5× NuPAGE SDS Loading Buffer and heated at 100° C. for 10 minutes in a heat block. Then 15 μL samples (15 μg) were loaded into 26-well SDS-PAGE gel (Novex, WXP81626BOX) and the gels were processed at 120 V for 1.5 hours, prior to electrotransfer to an NC membrane using a wet-transfer method with 250 mA for 1.5 hours. The resulting membrane was then blocked for 1 hours with LICOR blocking buffer (LI-COR, 927-70001), and was then incubated with a primary antibody 1:1000 (Anti-KRAS (LS-C175665)) that was previously prepared in block buffer at 4° C. overnight. Then, the membrane was washed three times with 1×TBST for 5 minutes each washing, and the membrane was incubated with a secondary antibody GAM 1:5000 (anti-mouse IgG (LI-COR, 926-68070)) for 1 hour at room temperature. The membrane was then washed three times with 1×TBST for 5 minutes each washing, and the membrane was read on LiCOR.
Table 2 below summarizes the normalized KRAS levels in NCI-H2030 cells that were treated with the exemplary compounds of Examples 1-3 for 24 hours.

[2] = target: T2, BTK (Homo sapiens, UniProt Q06187); assay: BTK levels in NAMALWA cells (Western blot); assay type: cell-based; conditions: 4 hours EBSS starvation
T2 construct: endogenous in cells; host or cells: NAMALWA
Method: The following protocol was used to test the effect of exemplary compounds on BTK levels in NAMALWA cells.
On Day 1, NAMALWA cells were seeded in 6 well plates at concentration of 2×10^6/well and were incubated overnight. On Day 2, the cells were treated at indicated concentrations following 4 hours of starvation in Earle's Balanced Salt Solution (EBSS, Gibco, #24010-043). After compound treatment for 24 hours, cells were collected and samples were prepared. Fresh, ice cold 1×RIPA lysis buffer supplemented with protease and phosphatase inhibitors was then added to the cell samples, followed by incubation on ice for 30 minutes, and then cells samples were collected. Cell samples were then centrifuged at 4° C., 12,000 rpm for 15 minutes and the resulting supernatant was collected. Protein concentrations within the collected samples were then measured using BCA kit (Solarbio, PC0020), and the cell lysate was mixed with SDS loading buffer and heated at 100° C. for 5 minutes.
15 μg of protein from the samples prepared above was loaded in 4-12% Bis-Tris Gels in 1×MOPS buffer, and the samples were run at 120 V for 120 min. Transfer of the resulting gels was then carried out using the Transblot system with NC membrane, and the membranes were blocked with 5% BSA in TBST for 1 hr at room temperature. Membrane hybridization was then carried out overnight at 4° C. with primary antibodies (anti-BTK, Cell Signaling Technology #8547, Rabbit, 1:1000 diluted in 1% BSA in TBST), and the resulting membranes were washed with TBST for 3×10 min at RT, and then incubated with second antibodies (Goat anti-Rabbit IgG H&L, IRDye® 800CW, LI-COR, 926-32211, 1:5000 diluted in 1% BSA in TBST) in 1% BSA for 1 hr at room temperature. After washing the resulting membranes with TBST for 10 min, 3 times at room temperatures, the membranes were imaged using a Li-COR imaging system.
Table 3 below summarizes the normalized BTK levels in NAMALWA cells treated with the exemplary compounds of Examples 6-8 for 24 hours.

T2 sequence (Q06187 whole entry): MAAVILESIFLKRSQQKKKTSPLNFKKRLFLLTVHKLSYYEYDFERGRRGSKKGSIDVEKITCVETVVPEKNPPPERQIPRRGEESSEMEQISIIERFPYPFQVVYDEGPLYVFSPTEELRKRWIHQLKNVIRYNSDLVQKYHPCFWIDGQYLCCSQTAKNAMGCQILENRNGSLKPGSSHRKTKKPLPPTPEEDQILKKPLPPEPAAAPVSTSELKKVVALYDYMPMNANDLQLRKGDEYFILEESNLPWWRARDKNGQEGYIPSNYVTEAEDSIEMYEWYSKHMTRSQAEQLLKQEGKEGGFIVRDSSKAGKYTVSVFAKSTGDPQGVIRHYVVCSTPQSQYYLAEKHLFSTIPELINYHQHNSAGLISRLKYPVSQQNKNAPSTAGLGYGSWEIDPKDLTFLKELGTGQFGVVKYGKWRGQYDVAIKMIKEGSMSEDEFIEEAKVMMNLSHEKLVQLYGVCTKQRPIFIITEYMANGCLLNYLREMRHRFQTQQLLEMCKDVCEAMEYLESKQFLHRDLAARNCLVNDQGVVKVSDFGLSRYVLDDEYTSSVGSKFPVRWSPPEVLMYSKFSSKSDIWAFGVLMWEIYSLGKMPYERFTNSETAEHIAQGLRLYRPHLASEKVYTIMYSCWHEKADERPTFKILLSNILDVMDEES

Structure (SMILES)	Normalized KRAS levels in NCI-H2030 cells treated with Compounds for 24 hours ([1]; 3.33 μM compound concentration) [%]	Normalized KRAS levels in NCI-H2030 cells treated with Compounds for 24 hours ([1]; 10 μM compound concentration) [%]	Normalized BTK levels in NAMALWA cells treated with Compounds for 24 hours after 4 hours of starvation in EBSS ([2]; 3.33 μM compound concentration) [%]	Normalized BTK levels in NAMALWA cells treated with Compounds for 24 hours after 4 hours of starvation in EBSS ([2]; 10 μM compound concentration) [%]	further results
C=C(F)C(=O)N1CCN(c2nc(OC[C@@H]3CCCN3CCCOCCOc3c(Br)cc(C=C4C(=O)Nc5ccc(I)cc54)cc3Br)nc3c2CCN(c2cccc4cccc(Cl)c24)C3)C[C@@H]1CC#N [Example 2, 2-((S)-4-(7-(8-chloronaphthalen-1-yl)-2-(((S)-1-(3-(2-(2,6-dibromo-4-((5-iodo-2-oxoindolin-3-ylidene)methyl)phenoxy)ethoxy)propyl)pyrrolidin-2-yl)methoxy)-5,6,7,8-tetrahydropyrido[3,4-d]pyrimidin-4-yl)-1-(2-fluoroacryloyl)piperazin-2-yl)acetonitrile]	45.1	48.6	–	–	–
C=C(F)C(=O)N1CCN(c2nc(OC[C@@H]3CCCN3CCCOCCOCCOCCOc3c(Br)cc(C=C4C(=O)Nc5ccc(I)cc54)cc3Br)nc3c2CCN(c2cccc4cccc(Cl)c24)C3)C[C@@H]1CC#N [Example 1, 2-((S)-4-(7-(8-chloronaphthalen-1-yl)-2-(((S)-1-(3-(2-(2-(2-(2,6-dibromo-4-((5-iodo-2-oxoindolin-3-ylidene)methyl)phenoxy)ethoxy)ethoxy)ethoxy)propyl)pyrrolidin-2-yl)methoxy)-5,6,7,8-tetrahydropyrido[3,4-d]pyrimidin-4-yl)-1-(2-fluoroacryloyl)piperazin-2-yl)acetonitrile]	84.9	87.5	–	–	–
Nc1ncnc2c1c(-c1ccc(Oc3ccccc3)cc1)nn2C1CCN(CCOCCOCCOCCOCCN2C(=O)C(=Cc3cc(Br)c(O)c(Br)c3)c3cc(I)ccc32)CC1.O=CO [Example 6, 1-(14-(4-(4-amino-3-(4-phenoxyphenyl)-1H-pyrazolo[3,4-d]pyrimidin-1-yl)piperidin-1-yl)-3,6,9,12-tetraoxatetradecyl)-3-(3,5-dibromo-4-hydroxybenzylidene)-5-iodo indolin-2-one formate]	–	–	–	–	Normalized BTK levels in NAMALWA cells treated with Compounds for 24 hours after 4 hours of starvation in EBSS ([2]; 10 μM column, footnote: tested at 11.1 uM from 100 uM top concentration): ~58.7%*; Normalized BTK levels in NAMALWA cells treated with Compounds for 24 hours after 4 hours of starvation in EBSS ([2]; 30 μM column, footnote: tested at 33.3 uM from 100 uM top concentration): ~30.1%*
C=C(F)C(=O)N1CCN(c2nc(OC[C@@H]3CCCN3CCCOCCOCCOc3c(Br)cc(C=C4C(=O)Nc5ccc(I)cc54)cc3Br)nc3c2CCN(c2cccc4cccc(Cl)c24)C3)C[C@@H]1CC#N [Example 3, 2-((S)-4-(7-(8-chloronaphthalen-1-yl)-2-(((S)-1-(3-(2-(2-(2,6-dibromo-4-((5-iodo-2-oxoindolin-3-ylidene)methyl)phenoxy)ethoxy)ethoxy)propyl)pyrrolidin-2-yl)methoxy)-5,6,7,8-tetrahydropyrido[3,4-d]pyrimidin-4-yl)-1-(2-fluoroacryloyl)piperazin-2-yl)acetonitrile]	63.0	65.7	–	–	–

The next lines start with results.

Normalized KRAS levels in NCI-H2030 cells treated with Compounds for 24 hours ([1]; 3.33 μM compound concentration) [%]	Normalized KRAS levels in NCI-H2030 cells treated with Compounds for 24 hours ([1]; 10 μM compound concentration) [%]	Normalized BTK levels in NAMALWA cells treated with Compounds for 24 hours after 4 hours of starvation in EBSS ([2]; 3.33 μM compound concentration) [%]	Normalized BTK levels in NAMALWA cells treated with Compounds for 24 hours after 4 hours of starvation in EBSS ([2]; 10 μM compound concentration) [%]	Structure (SMILES)	further results
–	–	83.1	66.3	Nc1ncnc2c1c(-c1ccc(Oc3ccccc3)cc1)nn2C1CCN(CCOCCOCCN/C(=C2\C(=O)Nc3ccc(Br)cc32)c2cccc(O)c2)CC1 [Example 8, (3Z)-3-[[2-[2-[2-[4-[4-amino-3-(4-phenoxyphenyl)pyrazolo[3,4-d]pyrimidin-1-yl]-1-piperidyl]ethoxy]ethoxy]ethylamino]-(3-hydroxyphenyl)methylene]-5-bromo-indolin-2-one]	–
–	–	67.0	48.2	Nc1ncnc2c1c(-c1ccc(Oc3ccccc3)cc1)nn2C1CCN(CCOCCOCCOCCN/C(=C2\C(=O)Nc3ccc(Br)cc32)c2cccc(O)c2)CC1.O=CO [Example 7, (3Z)-3-[[2-[2-[2-[2-[4-[4-amino-3-(4-phenoxyphenyl)pyrazolo[3,4-d]pyrimidin-1-yl]-1-piperidyl]ethoxy]ethoxy]ethoxy]ethylamino]-(3-hydroxyphenyl)methylene]-5-bromo-indolin-2-one formate]	–
